Measured values published in paper PMC3677530 (Analytical biochemistry, 2013).
Several values for one entry are separate records, joined by “and”; a condition that tells them apart may be missing. Equal entries are not always repeated. Where two headings read alike, the source gives them in different places.

How the values were obtained:
[1] = biological target: human cannabinoid CB1 receptor (Homo sapiens, UniProt P21554); experiment: cell-based; format: cell-based; conditions: for CB2/CB1: ratio of the IC50 values CB2/CB1, plate-based assay
human cannabinoid CB1 receptor, sequence (P21554 whole entry): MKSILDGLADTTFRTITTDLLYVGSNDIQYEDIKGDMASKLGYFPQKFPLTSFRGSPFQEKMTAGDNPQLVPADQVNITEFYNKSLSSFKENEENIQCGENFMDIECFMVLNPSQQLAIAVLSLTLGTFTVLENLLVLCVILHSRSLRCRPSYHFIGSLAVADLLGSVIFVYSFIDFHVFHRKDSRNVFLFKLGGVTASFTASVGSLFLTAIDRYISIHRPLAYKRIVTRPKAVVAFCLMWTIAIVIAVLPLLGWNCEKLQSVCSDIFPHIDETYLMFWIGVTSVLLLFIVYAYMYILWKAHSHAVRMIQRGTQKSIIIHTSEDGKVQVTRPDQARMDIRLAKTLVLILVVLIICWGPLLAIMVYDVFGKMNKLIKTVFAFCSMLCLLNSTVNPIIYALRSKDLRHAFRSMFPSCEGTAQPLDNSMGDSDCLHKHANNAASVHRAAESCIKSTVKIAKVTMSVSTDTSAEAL

[2] = biological target: human cannabinoid CB2 receptor (Homo sapiens, UniProt P34972); experiment: cell-based; conditions: for inhibition of internalization (CB2): 2 nM [3H]-CP55,940, CHO-CB2
human cannabinoid CB2 receptor, sequence (P34972 whole entry): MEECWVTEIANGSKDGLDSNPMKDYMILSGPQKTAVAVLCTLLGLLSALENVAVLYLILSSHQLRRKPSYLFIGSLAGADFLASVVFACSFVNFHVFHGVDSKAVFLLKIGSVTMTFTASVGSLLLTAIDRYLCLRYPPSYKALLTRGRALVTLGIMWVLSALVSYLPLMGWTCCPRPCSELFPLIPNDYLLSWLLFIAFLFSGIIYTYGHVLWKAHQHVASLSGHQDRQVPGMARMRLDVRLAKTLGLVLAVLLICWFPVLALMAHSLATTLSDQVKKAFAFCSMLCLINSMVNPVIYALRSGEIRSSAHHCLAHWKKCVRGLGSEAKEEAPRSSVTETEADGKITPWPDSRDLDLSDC

CB2 receptor = conditions: ref Tam et al [25]; cited from earlier work

| Compound | inhibition of internalization (CB1) [1] | CB2/CB1 [1] | inhibition of internalization (CB2) [2] | IC50 ([1]; read-out: CB1 (IC50 ±SD)) | further results |
| --- | --- | --- | --- | --- | --- |
| CCCCCn1cc(C(=O)C23CC4CC(CC(C4)C2)C3)c2ccccc21 [AB001, 3-[(adamantan-1-yl)carbonyl]-1-pentylindole] | 32.6% | 58 | 30.3% | – | IC50 [1]: 29.5 ± 2.23 nM |
| COc1ccc(C(=O)c2c(C)n(CCN3CCOCC3)c3cc(I)ccc23)cc1 [AM630] | – | – | 51.4% | – | – |
| Cc1c(C(=O)NN2CCCCC2)nn(-c2ccc(Cl)cc2Cl)c1-c1ccc(Cl)cc1 [Rimonabant] | – | – | 37.7% | – | – |
| C[C@@]12CC[C@@H]3[C@@](CC[C@H]4[C@@]3(C)CCC[C@@]4(C)C(=O)O)(CC1=O)C2 [Isosteviol] | – | 0.02 | 56.8% | – | IC50 [1]: 37.5 ± 6.9 nM; inhibition of internalization (CB1) ([1]; 10 nM [3H]-Win 55,212-2, CHO-CB1): 71.1%; IC50 [2]: 0.9 nM and 0.89 nM; selectivity for CB2 (over CB1) ([2]; plate-based assay): ~ 40 times |
| CCCCCn1cc(C(=O)C2C(C)(C)C2(C)C)c2ccccc21 [UR144] | 29.6% | 3 | 38.1% | 27.2 ± 6.6 nM | selectivity for CB1 (over CB2) ([1]; plate-based assay): did not observe any selectivity |
| Cc1c(C(=O)NN2CCCCC2)nn(-c2ccc(Cl)cc2Cl)c1-c1ccc(I)cc1 [AM251] | – | – | 60.5% | – | – |
| Cc1c(C(=O)NN2CCOCC2)nn(-c2ccc(Cl)cc2Cl)c1-c1ccc(I)cc1 [AM281] | – | – | 44.2% | 9.91 ± 0.99 nM | – |
| Cc1c(C(=O)NN2CCS(=O)(=O)CC2)nn(-c2ccc(Cl)cc2Cl)c1-c1ccc(C#CCCC#N)cc1 [AM6545] | 43.7% | 309 | 50.7% | 4.2 ± 0.24 nM | – |
| CC(C)[C@H](N=C(NS(=O)(=O)c1ccc(Cl)cc1)N1C[C@H](c2ccccc2)C(c2ccc(Cl)cc2)=N1)C(N)=O [JD5037-030] | 64.4% | 810 | 52.1% | 0.2 ± 0.05 nM | binding affinity for CB2 (CB2 receptor): 245 nM |
